Test results: US20250325675A1, “APTAMER, CONJUGATE, COMPOSITION, METHOD FOR PREPARING SAME, AND USE THEREOF” (priority 2022, published 2025)
{Cy5} = cyanine 5 fluorescent dye

Key:
[1] = tested on: U118MG glioma subcutaneous tumor; assay: In vivo distribution in U118MG cell subcutaneous tumor model mice (Experimental Example 4); set-up: species or system NOD-SCID mice; conditions: mouse, in vivo
Description: U118MG human glioma cells in the logarithmic growth phase were selected and digested (0.25% pancreatic enzyme).
The mice were further fed for 20 days after injection.
The mice inoculated with U118MG above were randomly divided into 3 groups (4 mice per group). For the 4 mice per group, the administration volume was calculated according to 10 μL/g body weight, and AP1, AP2 and comparative AP11 were respectively administered to different groups of mice by tail vein injection and designated as test group 4A1, test group 4A2 and control group 4A3. Thus, the administration dosage of each mouse was 3 mg/kg (based on aptamer). Another mouse inoculated with U118MG above was administered with 1×DMEM medium by tail vein injection (the administration volume was 10 μL/g body weight), and designated as blank control group 4Y.

U118-MG glioma cells = assay: Flow cytometry: entry of conjugates into U118-MG glioma cells in vitro; type: cell-based, human; conditions: for relative fluorescence difference R: R=(MFIAP1−MFICAP10)/MFICAP10; for mean fluorescence intensity (MFI): 1 h 37°C, yeast tRNA 100 μg/mL, flow cytometry
Description: U118MG cells were seeded into a 96-well plate at 5×10^5 cells/well. Conjugate AP1 prepared above and yeast tRNA were respectively formulated into conjugates solution 1A, 1B, 1C, 1D, 1E, 1F, 1G, 1H, and 1I with DMEM medium, and these conjugate solutions 1A-1I comprised yeast tRNA at a final concentration of 100 μg/mL and respectively comprised conjugate AP1 at final concentrations of 5 nM, 10 nM, 20 nM, 40 nM, 60 nM, 80 nM, 100 nM, 150 nM, 200 nM, and […].
Control conjugate comparative AP10 prepared above and yeast tRNA were respectively formulated into conjugates solution 1A′, 1B′, 1C′, 1D′, 1E′, 1F′, 1G′ 1H′, and 1I′ with DMEM medium, and these conjugate solutions 1A′-1I′ comprised yeast tRNA at a final concentration of 100 μg/mL and respectively comprised control conjugate comparative AP10 at final concentrations of 5 nM, 10 nM, 20 nM, 40 nM, 60 nM, 80 nM, 100 nM, 150 nM, 200 nM, and […].
The aforementioned culture wells containing U118MG cells were respectively added with the conjugate solutions 1A-1I above in an amount of 200 μL/well and designated as test group 1A-test group 1I. The aforementioned culture wells containing U118MG cells were respectively added with the conjugate solution 1A′-1I′ above in an amount of 200 μL/well and designated as control group 1A′-control group 1I′. Another culture well containing U118MG cells was added with 200 μL DMEM medium containing yeast tRNA at a final concentration of 100 μg/mL and designated as blank control group 1J. The 96-well plate containing the above test groups and the blank control group were incubated at 37° C. for 1 h in the dark; after incubation, the supernatant of the reaction mixture of each test group and the blank control group was aspirated, and DPBS buffer (purchased from Thermo Fisher) was added to wash the plate 3 times (100 μL each time). After the washing solution was aspirated, each culture well was added with 100 μL DMEM medium to obtain a cell suspension. The supernatant was removed by centrifugation and then 500 μL DPBS buffer was added to re-suspend the cells. Flow cytometry analysis was performed with flow cytometer (BD Biosciences): 10,000 cells in each test group or the blank control group were analyzed, the fluorescence intensity distribution was determined and the mean fluorescence intensity (MFI, a.u.) was calculated. Furthermore, the mean fluorescence intensity corresponding to each final concentration of conjugates is listed in Table 4 below for comparison, and the relative fluorescence difference R is calculated according to the following equation: R=(MFIAP1−MFICAP10)/MFICAP10.
Therein, MFIAP1 represents mean fluorescence intensity of conjugate AP1 in U118-MG glioma cells, and MFICAP10 represents mean fluorescence intensity of comparative AP10 in U118-MG glioma cells.

[2] = tested on: U118MG glioma tumor spheres; assay: High content imaging: entry into U118MG tumor spheres; type: cell-based, human; conditions: 100 nM, imaging without washing
Description: In this experiment, the entry of conjugate AP1 provided by the present disclosure and comparative conjugate comparative AP10 into U118MG glioma tumor spheres and A549 human non-small cell lung cancer tumor spheres was observed by a PerkinElmer High Content Imaging system (Operatta).
80 μL fresh, sterilized and unsolidified 2% agarose was added into the culture wells of a 96-well plate. […] Half of the supernatant was aspirated every 48 h and fresh DMEM medium was added along the wall of the culture wells. After 7 days of culture, the cells were observed under the microscope to confirm that complete cell spheres were obtained, indicating successful tumor sphere cultivation.
Each culture well was added with AP1 or comparative AP10 according to the method of experimental Example 2, and imaged in a high content imaging system, with the only difference of directly performing imaging after culture without washing and performing imaging according to the measured fluorescence intensity of Cy5.

## CY5-CfUfGGAGUfUfCfAGACfGUfGUfUfGCfUfCfUfUfCfCfGAUfCfUfCf (CUGGAGUUCAGACGUGUUGCUCUUCCGAUCUC; 2'-fluoro at CU, RNA at AG, 5' {Cy5}, backbone not given here) [AP1]
[1]
  fluorescence signal in mice / at site of tumor inoculation: strong fluorescence signal at the sites of tumor inoculation
U118-MG glioma cells; 5 nM
  relative fluorescence difference R: 9.37
U118-MG glioma cells; 10 nM
  relative fluorescence difference R: 6.47
U118-MG glioma cells; 20 nM
  relative fluorescence difference R: 5.18
U118-MG glioma cells; 40 nM
  relative fluorescence difference R: 2.25
U118-MG glioma cells; 60 nM
  relative fluorescence difference R: 2.53
U118-MG glioma cells; 80 nM
  relative fluorescence difference R: 2.71
U118-MG glioma cells; 100 nM
  relative fluorescence difference R: 1.88
U118-MG glioma cells; 150 nM
  relative fluorescence difference R: 2.17
U118-MG glioma cells; 200 nM
  relative fluorescence difference R: 3.23
U118-MG glioma cells; 500 nM
  relative fluorescence difference R: 2.91
U118-MG glioma cells; at different concentrations (5-500 nM)
  mean fluorescence intensity compared with comparative AP10: significantly higher mean fluorescence intensity
U118-MG glioma cells; conjugate 5 nM
  mean fluorescence intensity (MFI): 263.4 a.u.
U118-MG glioma cells; conjugate 10 nM
  mean fluorescence intensity (MFI): 503.4 a.u.
U118-MG glioma cells; conjugate 20 nM
  mean fluorescence intensity (MFI): 1089.4 a.u.
U118-MG glioma cells; conjugate 40 nM
  mean fluorescence intensity (MFI): 1440.4 a.u.
U118-MG glioma cells; conjugate 60 nM
  mean fluorescence intensity (MFI): 2355.4 a.u.
U118-MG glioma cells; conjugate 80 nM
  mean fluorescence intensity (MFI): 2921.4 a.u.
U118-MG glioma cells; conjugate 100 nM
  mean fluorescence intensity (MFI): 3360.4 a.u.
U118-MG glioma cells; conjugate 150 nM
  mean fluorescence intensity (MFI): 3969.4 a.u.
U118-MG glioma cells; conjugate 200 nM
  mean fluorescence intensity (MFI): 7895.4 a.u.
U118-MG glioma cells; conjugate 500 nM
  mean fluorescence intensity (MFI): 15770.4 a.u.
[2]
  Cy5 fluorescence signal in tumor spheres: strong Cy5 fluorescence signal
